Counter-ions that a name gives are not always drawn.

One series is described as follows: RP, Waters ACQUITY UPLC BEH C18, 100 × 2.1 mm, 1.7 µm, 65 °C, 0.4 mL/min, estimated dead time 0.55 min; A: water + 0.1% formic acid, pH 3; B: 80% acetonitrile + 20% acetone + 0.1% formic acid, pH 3; gradient (min/%B) 0/0 5/100 5.5/0 6/0. Particulars: stereoisomer not certain.
On to `COc1cc(CC2COC(=O)C2Cc2ccc(O)c(OC)c2)ccc1O` (single isomer, unassigned; (-)) [(-)-Matairesinol], for which the LC retention time is 2.86 min.
Same read-out and setting: the same measure for `COc1cccc(OC)c1O` [2,6-Dimethoxyphenol]: 2.36 min.
With `CC(C)C(O)(CC(=O)O)C(=O)O` (stereo unspecified) [2-Isopropylmalic acid], the LC retention time was 1.72 min.
As to `O=C1CCCCN1` [2-Piperidinone], the LC retention time was 1.37 min.
The same measure, in the same setting: the same measure for `CC1(O)Cc2c(O)cc(O)cc2OC1c1ccc(O)c(O)c1` (stereo unspecified) [3-Methylepicatechin]: 1.99 min; for `O=C(O)CC(O)c1ccccc1` (stereo unspecified) [3-hydroxy-3-phenylpropionic acid]: 2.06 min; for `COc1cc(C(C)=O)ccc1O` [4'-Hydroxy-3'methoxyacetophenone]: 2.18 min.
As for `Cc1cc(C(=O)O)ccc1O` [4-Hydroxy-3-methylbenzoic acid], the LC retention time is 2.03 min.
`C=C1CCC(O)CC1=CC=C1CCCC2(C)C1CCC2C(C)C=CC(C)C(C)(C)O` (stereo unspecified) [25-Hydroxyvitamin-D2]: the LC retention time was 5.07 min.
On the same count and under the same terms, next, `O=Cc1c[nH]c2ccccc12` [Indole-3-carbaldehyde]: 2.32 min.
With `CC12C=Cc3occc3C1CCC13CC(CCC12)C(O)(CO)C3` (stereo unspecified) [Kahweol], the LC retention time is 3.73 min.
As to `CC(O)(CCO)CC(=O)[O-]` (stereo unspecified) [Mevalonic acid], the LC retention time was 1.35 min.
As for `O=C(O)c1ccc2ccccc2n1` [Quinaldic acid], the LC retention time was 1.68 min.
The same measure, in the same setting: the same measure for `COc1ccc(-c2oc3cc(O)cc(O)c3c(=O)c2O)cc1O` [Tamarixetin]: 2.96 min.

A short description of another series: RP, Waters ACQUITY UPLC HSS T3, 100 × 2.1 mm, 1.8 µm, 30 °C, 0.4 mL/min, estimated dead time 0.55 min; A: water + 0.1% formic acid, pH 3; B: acetonitrile + 0.1% formic acid, pH 3; gradient (min/%B) 0/0 2/0 15/100 22/100 22.1/0 26/0. The following applies: stereoisomer not certain.
On to `CN1CCCCC1C(=O)O` (stereo unspecified) [1-Methylpiperidine-2-carboxylic acid], for which the LC retention time was 1.1 min.
For `Cn1c(=O)[nH]c2nc[nH]c2c1=O` [1-Methylxanthine], the LC retention time is 6.63 min.
On the same count and under the same terms, the same measure for `O=Cc1ccc[nH]1` [1H-pyrrole-2-carboaldehyde]: 7.8 min.
Same read-out and setting: the same measure for `CCCC(C(=O)O)c1cccc(O)c1` (stereo unspecified) [3-Hydroxyphenylvaleric acid]: 10.9 min; for `O=C(O)CCCCc1ccc(O)c(O)c1` [5-(3,4 dihydroxyphenyl)valeric acid]: 9.86 min.
Regarding `OCC1OC(Oc2ccc(O)cc2)C(O)C(O)C1O` (stereo unspecified) [Arbutin], the LC retention time was 1.34 min.
As for `CC(C)=CCCC(C)=CCOc1c2ccoc2cc2oc(=O)ccc12` [Bergamottin], the LC retention time was 17.4 min.
Still for that read-out and setting: next, `COc1c2ccoc2cc2oc(=O)ccc12` [Bergapten]: 12.6 min; `COc1ccc(-c2coc3cc(O)cc(O)c3c2=O)cc1` [Biochanin A]: 13.5 min; `COc1cc(CNC(=O)CCCCC=CC(C)C)ccc1O` [Capsaicin]: 13.7 min.
Same read-out and setting: next, `CC(C)CC1NC(=O)C2CCCN2C1=O` (stereo unspecified) [Cyclo(leucyl-prolyl)]: 9.2 min; `COc1ccc(-c2cc(=O)c3c(O)cc(O)cc3o2)cc1O` [Diosmetin]: 11.8 min; `OCC(Cc1cccc(O)c1)C(CO)Cc1cccc(O)c1` (stereo unspecified) [Enterodiol]: 10.6 min.
Same read-out and setting: the same measure for `COc1ccc(-c2coc3cc(O)ccc3c2=O)cc1` [Formononetin]: 12.4 min; for `COc1cc(C2CC(=O)c3c(O)cc(O)cc3O2)ccc1O` (stereo unspecified) [Homoeriodictyol]: 11.7 min.
For `COc1ccc(-c2oc3cc(O)cc(O)c3c(=O)c2O)cc1` [Kaempferide], the LC retention time was 13.4 min.
In the case of `COc1ccc(-c2cc(=O)c3c(OC)c(OC)c(OC)c(OC)c3o2)cc1OC` [Nobiletin], the LC retention time is 13.2 min.
The same measure, in the same setting: next, `O=C(C=CC=Cc1ccc2c(c1)OCO2)N1CCCCC1` [Piperine]: 13.7 min; `Oc1cc(O)c2c(c1)OC(c1ccc(O)c(O)c1)C(O)C2c1c(O)cc(O)c2c1OC(c1ccc(O)c(O)c1)C(O)C2` (stereo unspecified) [Procyanidin B2]: 8.35 min.
Regarding `COc1cc(O)c2c(=O)c(O)c(-c3ccc(O)c(O)c3)oc2c1` [Rhamnetin], the LC retention time is 12.5 min.
For `COc1ccc(-c2cc(=O)c3c(OC)c(OC)c(OC)cc3o2)cc1OC` [Sinensetin], the LC retention time was 12.6 min.
On the same count and under the same terms, the same measure for `COc1ccc(-c2oc3cc(O)cc(O)c3c(=O)c2O)cc1O` [Tamarixetin]: 11.9 min; for `CC1CCC2(NC1)OC1CC3C4CCC5CC(O)CCC5(C)C4CCC3(C)C1C2C` (stereo unspecified) [Tomatidine]: 11.8 min; for `O=c1cc(-c2ccc(O)cc2)oc2c(C3OC(CO)C(O)C(O)C3O)c(O)cc(O)c12` (stereo unspecified) [Vitexin]: 9.12 min.

A further series is described as follows: RP, Agilent InfinityLab Poroshell 120 EC-C18, 100 × 3 mm, 2.7 µm, 25 °C, 0.4 mL/min, estimated dead time 1.1 min; A: water + 0.1% formic acid, pH 3; B: acetonitrile + 0.1% formic acid, pH 3; gradient (min/%B) 0/5 10/25 20/40 24/90 25/90 26/5 30/5. Particulars: stereoisomer not certain.
Regarding `O=C1CCC(Cc2ccc(O)c(OS(=O)(=O)O)c2)O1` (stereo unspecified), the LC retention time is 6.5 min.
`O=C1CCC(Cc2cccc(O)c2)O1` (stereo unspecified): the LC retention time is 10.6 min.
In the case of `O=C(O)c1c(O)cccc1O` [2,6-Dihydroxybenzoic acid], the LC retention time was 6.49 min.
As to `O=C(O)C1OC(Oc2ccc(-c3coc4cc(O)ccc4c3=O)cc2)C(O)C(O)C1O` (stereo unspecified) [Daidzein 4'-O-glucuronide], the LC retention time is 8.83 min.
Turning to `O=C(O)C1OC(Oc2ccc3c(=O)c(-c4ccc(O)cc4)coc3c2)C(O)C(O)C1O` (stereo unspecified) [Daidzein 7-O-glucuronide], the LC retention time was 7.51 min.
Still for that read-out and setting: next, `O=c1c(-c2ccc(O)cc2)coc2cc(OS(=O)(=O)O)ccc12` [Daidzein sulfate]: 9.85 min; `Oc1ccc(CCc2cc(O)cc(O)c2)cc1` [Dihydroresveratrol]: 12.8 min; `OCC(Cc1cccc(O)c1)C(CO)Cc1cccc(O)c1` (stereo unspecified) [Enterodiol]: 13.5 min.
For `O=S(=O)([O-])Oc1ccc(C2COc3cc(O)ccc3C2)cc1` (stereo unspecified) [Equol sulfate], the LC retention time is 11.6 min.
Same read-out and setting: next, `O=C(O)C1OC(Oc2ccc(-c3coc4cc(O)cc(O)c4c3=O)cc2)C(O)C(O)C1O` (stereo unspecified) [Genistein 4'-O-glucuronide]: 10.7 min; `COc1ccc(C2CC(=O)c3c(O)cc(O)cc3O2)cc1OS(=O)(=O)O` (stereo unspecified) [Hesperetin 3'-O-sulfate]: 13.3 min.
Turning to `COc1ccc(C2CC(=O)c3c(O)cc(OS(=O)(=O)O)cc3O2)cc1O` (stereo unspecified) [Hesperetin 7-sulfate], the LC retention time is 12.6 min.
On to `O=c1oc2cc(O)ccc2c2cc(O)ccc12` [Isourolithin  A], for which the LC retention time is 12.7 min.
As to `O=C(O)C1OC(Oc2ccc3c(c2)oc(=O)c2ccc(O)cc23)C(O)C(O)C1O` (stereo unspecified) [Isourolithin A glucuronide], the LC retention time was 8.44 min.
Consider `O=S(=O)(O)Oc1ccc(C=Cc2cc(O)cc(O)c2)cc1` [Resveratrol 4'-sulfate], for which the LC retention time is 10 min.
Turning to `Cc1c(O)cc2c(c1O)C(=O)c1ccccc1C2=O` [Rubiadin], the LC retention time is 23.8 min.
On the same count and under the same terms, next, `COc1cc(CC(COC2OC(CO)C(O)C(O)C2O)C(COC2OC(CO)C(O)C(O)C2O)Cc2ccc(O)c(OC)c2)ccc1O` (stereo unspecified) [Secoisolariciresinol diglucoside]: 8.08 min.
Same read-out and setting: next, `O=c1oc2cc(OS(=O)(=O)O)ccc2c2ccc(O)cc12` [Urolithin A-3-sulfate]: 9.67 min; `O=c1oc2cc(OS(=O)(=O)O)ccc2c2ccccc12` [Urolithin B-3-sulfate]: 12.7 min.
On the same count and under the same terms, next, `O=c1oc2cc(O)ccc2c2c(O)c(O)c(O)cc12` [Urolithin M6]: 9.62 min; `O=c1oc2cc(O)ccc2c2c(O)cc(O)cc12` [Urolithin M7]: 11.2 min; `O=C1c2ccccc2C(=O)c2c1cc(O)c(CO)c2O` [lucidin]: 18.6 min.

Another series can be described thus: RP, Agilent ZORBAX Eclipse XDB-C18, 100 × 2.1 mm, 1.8 µm, 50 °C, 0.4 mL/min, estimated dead time 0.55 min; A: water + 0.1% formic acid, pH 3; B: methanol + 0.1% formic acid, pH 3; gradient (min/%B) 0/2 10/100 14.5/100 14.51/2 16.5/2. The following applies: stereoisomer not certain.
On to `NCC(O)c1ccccc1` (stereo unspecified) [2-Amino-1-phenylethanol], for which the LC retention time is 1.42 min.
The same measure, in the same setting: the same measure for `COc1c(O)cccc1O` [2-Methoxyresorcinol]: 2.68 min.
Still for that read-out and setting: the same measure for `O=C(O)Cc1cc(O)cc(O)c1` [3,5-Dihydroxyphenylacetic acid]: 2.21 min; for `O=C([O-])CCc1ccccc1O` [3-(2-Hydroxyphenyl)propionic acid]: 4.8 min.
On the same count and under the same terms, the same measure for `O=C(O)CCCCC(=O)O` [Adipic acid]: 2.63 min; for `O=C(O)CNC(=O)C=Cc1ccccc1` [Cinnamoylglycine]: 4.75 min.
Take `C=C1CCC(O)CC1=CC=C1CCCC2(C)C1CCC2C(C)C=CC(C)C(C)C` (stereo unspecified) [Ergocalciferol]: the LC retention time was 11.8 min.
Same read-out and setting: the same measure for `O=C(O)Cc1cc(O)ccc1O` [Homogentisic acid]: 1.82 min; for `O=C([O-])C(O)c1ccccc1` (stereo unspecified) [Mandelic acid]: 3.01 min.
Turning to `CC1NCCc2cc(O)c(O)cc21` (stereo unspecified) [Salsolinol], the LC retention time is 1.57 min.
Regarding `CC1=C(/C=C/C(C)=C/C=C/C(C)=C/C=C/C=C(C)/C=C/C=C(C)/C=C/C2=C(C)CCCC2(C)C)C(C)(C)CCC1` [beta-carotene], the LC retention time is 13.8 min.

These data come from the RepoRT retention time repository (doi:10.1016/j.foodchem.2021.129757).
